This passage reports MIC results from DBAASP.

What all share (experiment): ≥ marks a high value that may be exact or a test limit, other limits are often not marked, values filed in µg/mL are converted to µM
For assay [1], the system named is Pseudomonas aeruginosa PAK.
Assay [2] deals with Staphylococcus aureus.
For assay [3], the system named is Streptococcus gordonii Challis DL1.
Assay [4] deals with Streptococcus mitis ATCC 903.
For assay [5], the system named is Streptococcus mutans UA159.
Assay [6] has as its system Streptococcus sanguinis NY101.
Assay [7] concerns Escherichia coli DH5alpha.
Assay [8] has as its system Pseudomonas aeruginosa NBRC 13275.
Assay [9] relates to Staphylococcus aureus NBRC 13276.
Assay [10] concerns Escherichia coli D31.
The subject of assay [11] is Listeria fleischmannii DSM 24998.
In assay [12] the test system is Listeria grayi DSM 20601.
The test system of assay [13] is Listeria monocytogenes DSM 20600.
In assay [14] the test system is Micrococcus luteus DSM 20030.
For assay [15], the system named is Candida albicans 820.
Assay [16] relates to Escherichia coli ML-35p.
Assay [17] has as its system Listeria monocytogenes EGD.
Assay [18] relates to Staphylococcus aureus ATCC 33591.

≈ marks a conversion by molar mass, not a printed value. Where “and” joins values, the source holds several entries; their conditions need not be identical. Equal values may be shown once. Some results are limits rather than exact numbers.

For the compound `CC[C@H](C)[C@H](NC(=O)CNC(=O)CNC(=O)CNC(=O)[C@H](Cc1ccccc1)NC(=O)[C@H](CCCN=C(N)N)NC(=O)[C@H](Cc1cnc[nH]1)NC(=O)[C@@H](NC(=O)[C@H](Cc1ccccc1)NC(=O)[C@H](Cc1cnc[nH]1)NC(=O)[C@H](CCCCN)NC(=O)[C@@H](NC(=O)[C@@H](N)Cc1ccccc1)[C@@H](C)CC)[C@@H](C)CC)C(=O)N[C@@H](CCCCN)C(=O)N[C@@H](CCC(N)=O)C(=O)N[C@@H](CC(C)C)C(=O)N[C@@H](CC(C)C)C(=O)N[C@@H](Cc1cnc[nH]1)C(=O)N[C@@H](Cc1ccccc1)C(=O)N[C@@H](Cc1ccccc1)C(=O)N[C@@H](CCC(N)=O)C(=O)N[C@@H](CCCN=C(N)N)C(=O)N[C@@H](Cc1ccccc1)C(N)=O` [FIKHFIHRFGGGIKQLLHFFQRF], the MIC in assay [1] was at least 43.5 µM; in assay [2], 21.7 µM (≈ 62.5 µg/mL); in assay [3], 11.1 µM (≈ 32 µg/mL); in [4], 5.57 µM (≈ 16 µg/mL); in assay [5], 2.78 µM (≈ 8 µg/mL); in assay [6], 11.1 µM (≈ 32 µg/mL).

Take `CC[C@H](C)[C@H](NC(=O)CNC(C)=O)C(=O)NCC(=O)N[C@@H](CCCCN)C(=O)N[C@@H](Cc1ccccc1)C(=O)N[C@@H](CC(C)C)C(=O)N[C@@H](Cc1cnc[nH]1)C(=O)N[C@@H](CO)C(=O)N[C@@H](C)C(=O)N[C@@H](CCCCN)C(=O)N[C@@H](CCCCN)C(=O)N[C@@H](Cc1ccccc1)C(=O)NCC(=O)N[C@@H](CCCCN)C(=O)N[C@@H](C)C(=O)N[C@@H](Cc1ccccc1)C(=O)N[C@H](C(=O)NCC(=O)N[C@@H](CCC(=O)O)C(=O)N[C@H](C(=O)N[C@@H](CCSC)C(=O)N[C@@H](CC(N)=O)C(=O)N[C@@H](CO)C(N)=O)[C@@H](C)CC)C(C)C` [GIGKFLHSAKKFGKAFVGEIMNS]: the MIC in [7] was at least 50 µM; in [8], 25 µM (≈ 62.7 µg/mL); in assay [9], at least 200 µM.

`CC[C@H](C)[C@H](N)C(=O)N[C@@H](Cc1ccccc1)C(=O)N[C@@H](CCCCN)C(=O)N[C@@H](C)C(=O)N[C@H](C(=O)N[C@@H](Cc1c[nH]c2ccccc12)C(=O)N[C@@H](CO)C(=O)NCC(=O)N[C@H](C(=O)N[C@@H](CCCCN)C(=O)N[C@@H](CO)C(=O)N[C@@H](CC(C)C)C(=O)N[C@@H](Cc1ccccc1)C(=O)O)[C@@H](C)CC)[C@@H](C)CC` [IFKAIWSGIKSLF]: the MIC in assay [10] was found to be 15 µM (≈ 22.6 µg/mL); in assay [11], 2 µM (≈ 3.02 µg/mL); in [12], 2 µM (≈ 3.02 µg/mL); in [13], 2 µM (≈ 3.02 µg/mL); in assay [14], 2 µM (≈ 3.02 µg/mL).

For `CC[C@H](C)[C@@H]1NC(=O)[C@H](CC(N)=O)NC(=O)[C@@H]2CSSC[C@@H]3NC(=O)[C@H](CCCN=C(N)N)NC(=O)[C@@H](NC(=O)[C@@H](NC(=O)[C@@H](N)CCCN=C(N)N)[C@@H](C)O)CSSC[C@@H](C(=O)N[C@@H](CCCN=C(N)N)C(=O)O)NC(=O)[C@H](CSSC[C@H](NC(=O)[C@H](CCCN=C(N)N)NC(=O)CNC(=O)[C@H](CC(C)C)NC(=O)[C@H](CCCN=C(N)N)NC3=O)C(=O)N[C@@H](CO)C(=O)N[C@@H](CCCN=C(N)N)C(=O)N[C@@H](CCCN=C(N)N)C(=O)N[C@@H](CCC(=O)O)C(=O)N[C@@H](CO)C(=O)N[C@@H](Cc3ccc(O)cc3)C(=O)N[C@@H](CO)C(=O)NCC(=O)N[C@@H](CO)C(=O)N2)NC(=O)[C@H](CC(C)C)NC(=O)[C@H](CO)NC(=O)[C@H](Cc2ccc(O)cc2)NC(=O)[C@H]([C@@H](C)CC)NC(=O)[C@H](CCCN=C(N)N)NC(=O)CNC(=O)[C@H](CC(N)=O)NC1=O` [RTCRCRLGRCSRRESYSGSCNINGRIYSLCCR], the MIC in assay [15] was 2.6 µM and 3.8 µM; in [16], 2 µM and 3.1 µM; in [17], 1.2 µM and 1.9 µM; in assay [18] it was 4.5 µM and 7.8 µM.

Broadly, the MIC is the lowest concentration found to suppress growth. Low values mean a more susceptible organism, high ones a less susceptible organism.
